ChEMBL document CHEMBL1287803, “Synthesis of 4β-N-polyaromatic substituted podophyllotoxins: DNA topoisomerase inhibition, anticancer and apoptosis-inducing activities” (Bioorg Med Chem, 2010)
Active and inactive are the calls of the source. The calls are words filed in the database; no cut-off is given here.

Assays:
IMR-32 = assay: Anticancer activity against human IMR32 cells assessed as cell viability after 48 hrs by SRB assay; assay type: functional, cell-based; details: IMR-32, 48 h
PC-3 = assay: Anticancer activity against human PC3 cells assessed as cell viability after 48 hrs by SRB assay; assay type: functional, cell-based; details: PC-3, 48 h
HCT-15 = assay: Anticancer activity against human HCT15 cells assessed as cell viability after 48 hrs by SRB assay; assay type: functional, cell-based; details: HCT-15, 48 h
A549 = assay: Anticancer activity against human A549 cells assessed as cell viability after 48 hrs by SRB assay; assay type: functional, cell-based; details: A549, 48 h
HEp-2 = assay: Anticancer activity against human Hep2 cells assessed as cell viability after 48 hrs by SRB assay; assay type: functional, cell-based; details: HEp-2, 48 h
MOLT-4 [1] = assay: Cell cycle arrest in human MOLT4 cells assessed as accumulation at sub G1 phase at 5 uM after 24 hrs using propidium iodide staining by flow cytometry; assay type: functional, cell-based
DU-145 = assay: Anticancer activity against human DU145 cells assessed as cell viability after 48 hrs by SRB assay; assay type: functional, cell-based; details: DU-145, 48 h
[2] = Inhibition of DNA topoisomerase 2 assessed as inhibition of relaxation of supercoiled pBR322 plasmid DNA at 10 to 500 uM by gel electrophoresis
[3] = Inhibition of DNA topoisomerase 2 assessed as inhibition of relaxation of supercoiled pBR322 plasmid DNA at 1 mM by gel electrophoresis
[4] = Anticancer activity against human 502713 cells assessed as cell viability after 48 hrs by SRB assay; assay type: functional, cell-based; details: Homo sapiens, 502713, 48 h
MOLT-4 [5] = assay: Induction of apoptosis in human MOLT4 cells assessed as DNA fragmentation at 10 uM after 24 hrs by agarose gel electrophoresis; assay type: functional, cell-based
MOLT-4 [6] = assay: Induction of apoptosis in human MOLT4 cells assessed as DNA fragmentation at 5 uM after 24 hrs by agarose gel electrophoresis; assay type: functional, cell-based
MOLT-4 [7] = assay: Cell cycle arrest in human MOLT4 cells assessed as accumulation at sub G1 phase at 10 uM after 24 hrs using propidium iodide staining by flow cytometry; assay type: functional, cell-based
MOLT-4 [8] = assay: Induction of apoptosis in human MOLT4 cells assessed as DNA fragmentation at 1 uM after 24 hrs by agarose gel electrophoresis; assay type: functional, cell-based
MOLT-4 [9] = assay: Cell cycle arrest in human MOLT4 cells assessed as accumulation at sub G1 phase at 1 uM after 24 hrs using propidium iodide staining by flow cytometry; assay type: functional, cell-based
MOLT-4 [10] = assay: Induction of apoptosis in human MOLT4 cells assessed as DNA fragmentation at 0.5 uM after 24 hrs by agarose gel electrophoresis; assay type: functional, cell-based
MOLT-4 [11] = assay: Cell cycle arrest in human MOLT4 cells assessed as accumulation at sub G1 phase at 0.5 uM after 24 hrs using propidium iodide staining by flow cytometry; assay type: functional, cell-based
[12] = Inhibition of DNA topoisomerase 2 assessed as inhibition of relaxation of supercoiled pBR322 plasmid DNA at 10 uM by gel electrophoresis

SMILES | IC50 (IMR-32) | IC50 (PC-3) | IC50 (HCT-15) | IC50 (A549) | IC50 (HEp-2) | Activity (MOLT-4 [1]) | IC50 (DU-145) | inhibition [2] | inhibition [3] | IC50 [4] | Activity (MOLT-4 [5]) | Activity (MOLT-4 [6]) | Activity (MOLT-4 [7]) | Activity (MOLT-4 [8]) | Activity (MOLT-4 [9]) | Activity (MOLT-4 [10]) | Activity (MOLT-4 [11]) | inhibition [12]
CC[C@@]1(O)C(=O)OCc2c1cc1n(c2=O)Cc2cc3ccccc3nc2-1 [CAMPTOTHECIN] | 0.08 µM | 0.03 µM | 0.067 µM | 0.03 µM | 0.7 µM | Active | 0.02 µM |  |  |  |  |  |  |  |  |  |  | 
COc1cc([C@@H]2c3cc4c(cc3[C@@H](Nc3cc5c6ccccc6ccc5c5ccccc35)[C@H]3COC(=O)[C@H]23)OCO4)cc(OC)c1O | 0.001 µM | 0.0003 µM | 0.1 µM | 0.0003 µM | 0.01 µM |  | 0.0003 µM | Active | Active | 0.1 µM |  |  |  |  |  |  |  | 
COc1cc([C@@H]2c3cc4c(cc3[C@@H](Nc3cccc5cc6ccccc6cc35)[C@H]3COC(=O)[C@H]23)OCO4)cc(OC)c1O | 2.3 µM |  | 8.2 µM | 8.3 µM | 8.6 µM |  | 18 µM |  |  |  |  |  |  |  |  |  |  | 
COc1cc([C@@H]2c3cc4c(cc3[C@@H](Nc3cccc5cc6ccccc6cc35)[C@H]3COC(=O)[C@H]23)OCO4)cc(OC)c1OC | 6.7 µM | 7.9 µM | 6.3 µM | 8.8 µM | 6.7 µM |  | 21 µM |  |  | 9.4 µM |  |  |  |  |  |  |  | 
COc1cc([C@@H]2c3cc4c(cc3[C@@H](Nc3ccc5ccc6cccc7ccc3c5c67)[C@H]3COC(=O)[C@H]23)OCO4)cc(OC)c1OC |  | 0.0001 µM | 0.0001 µM | 0.0009 µM |  |  |  | Active | Active | 0.002 µM |  |  |  |  |  |  |  | 
COc1cc([C@@H]2c3cc4c(cc3[C@@H](Nc3ccc(C(=O)c5ccc(F)cc5)cc3)[C@H]3COC(=O)[C@H]23)OCO4)cc(OC)c1O | 1.3 µM | 6 µM | 0.08 µM | 0.2 µM | 1.3 µM |  | 0.3 µM |  |  | 1.4 µM |  |  |  |  |  |  |  | 
COc1cc([C@@H]2c3cc4c(cc3[C@@H](Nc3cccc5c3Cc3ccccc3-5)[C@H]3COC(=O)[C@H]23)OCO4)cc(OC)c1O | 10 µM | 0.5 µM | 0.0001 µM | 1 µM | 1 µM |  | 2.7 µM |  |  | 0.001 µM |  |  |  |  |  |  |  | 
COc1cc([C@@H]2c3cc4c(cc3[C@@H](Nc3ccc(C(=O)c5ccc(F)cc5)cc3)[C@H]3COC(=O)[C@H]23)OCO4)cc(OC)c1OC | 19 µM | 6.7 µM | 6.2 µM | 17 µM | 7.1 µM |  |  |  |  | 4.1 µM |  |  |  |  |  |  |  | 
COc1cc([C@@H]2c3cc4c(cc3[C@@H](Nc3ccc(C(=O)c5ccc(N(CCCl)CCCl)cc5)cc3)[C@H]3COC(=O)[C@H]23)OCO4)cc(OC)c1OC | 6.3 µM | 2.6 µM | 0.9 µM | 3.08 µM | 0.9 µM |  | 3.7 µM |  |  | 0.1 µM |  |  |  |  |  |  |  | 
COc1cc([C@@H]2c3cc4c(cc3[C@@H](Nc3cccc5c3Cc3ccccc3-5)[C@H]3COC(=O)[C@H]23)OCO4)cc(OC)c1OC | 5.5 µM | 4.3 µM | 0.09 µM | 7.1 µM | 3 µM |  | 6.6 µM |  |  | 5.5 µM |  |  |  |  |  |  |  | 
COc1cc([C@@H]2c3cc4c(cc3[C@@H](Nc3cc5c6ccccc6ccc5c5ccccc35)[C@H]3COC(=O)[C@H]23)OCO4)cc(OC)c1OC | 0.003 µM | 0.1 µM | 0.002 µM | 0.04 µM | 0.002 µM | Active | 2.2 µM | Active | Active | 0.1 µM | Active | Active | Active | Active | Active | Active | Active | 
COc1cc([C@@H]2c3cc4c(cc3[C@@H](Nc3ccc5ccc6cccc7ccc3c5c67)[C@H]3COC(=O)[C@H]23)OCO4)cc(OC)c1O | 0.2 µM |  | 0.0001 µM | 1.7 µM | 0.0002 µM |  | 2.2 µM |  |  | 0.002 µM |  |  |  |  |  |  |  | 
COc1cc([C@@H]2c3cc4c(cc3[C@@H](O[C@@H]3O[C@@H]5CO[C@@H](C)O[C@H]5[C@H](O)[C@H]3O)[C@H]3COC(=O)[C@H]23)OCO4)cc(OC)c1O [ETOPOSIDE] | 6.3 µM | 2.6 µM | 0.9 µM | 3.08 µM | 0.9 µM |  | 3.7 µM |  |  | 0.1 µM |  |  |  |  |  |  |  | Active
O=c1[nH]cc(F)c(=O)[nH]1 [FLUOROURACIL] | 18 µM | 12 µM | 3.6 µM | 2.4 µM | 0.3 µM |  | 4.8 µM |  |  | 4.6 µM |  |  |  |  |  |  |  | 
